# Where two headings read alike, the source gives them in different places.
# Key:
# [1] = Biodistribution of i.v. administered radioiodinated compounds in balb/c mice; details: for Bone-seeking properties: mouse, in vivo; for Discomfort or toxicity after administration of samples: single bolus tail vein injection, 100 μl;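 on all read-outs here: healthy mice given radioiodinated bisphosphonic acids, with randomly chosen groups of three animals per time point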
# Protocol: Mice. Samples of 100 μl containing 50,100, 400, 140 or 45 KBq of 31a, 34a, 46a, 67a or 72a, respectively, were injected into the tail veins as single bolus injections. […] At 0.5 h, 2 h, 5 h and 24 h postinjection times the animals were sacrificed; except in the case of the phosphate phosphonate derivative 31 were the animals were sacrificed 0.25 h, 2 h, 5 h and 24 h postinjection. Randomly selected groups of three animals were used at each time point. The whole animals were weighed and dissected. The excised organs, i.e. femur, skull, blood, heart, lung, liver, kidney, spleen, stomach, large intestine and small intestine, were weighed separately prior to counting.
# Radioactivity measurements of the labelled compounds were carried out with a liquid scintillation counter (Beckman LS 6500, Beckman Instruments, USA) or with a Capintec CRC-7R radioisotope calibrator (Capintec, USA). The radioactivity level of the excised organs was measured with an automated gamma counter (LKB Wallac 1282, Turku, Finland).
# OHS cells = details: 60 days; ^153Sm-EDTMP 800 MBq/kg, ^89Sr 20 MBq/kg, ifosfamide 150 mg/kg; cited from earlier work
# MT-1 cells = details: repeated treatments (days 7 and 14); cited from earlier work
# [2] = Swiss Webster mice, 20-25 g, 47 h; cited from earlier work
# [3] = Sprague-Dawley rats, 220 g, 24 h; cited from earlier work
# [4] = balb/c mice, 19-22 g, cited from earlier work
molecule,measurement,setting,value
"O=P(O)(O)C(Cc1ccccc1)P(=O)(O)O [2h, phenylethylidenebisphosphonic acid]",Uptake in femur,"[1]; 2 h postinjection (peak), i.v.",21±4 % ID/g
same,Uptake in femur,"[1]; 24 h postinjection, i.v.",15±5 % ID/g
"O=P(O)(O)C(Cc1cccc([125I])c1)P(=O)(O)O [34a, m-[^125I and ^131I]-iodophenylethylidene-1,1-bisphosphonic Acid]",Uptake in femur,"[1]; 0.5 h (30 min) postinjection, i.v.",18.8±0.51 % ID/g
same,Activity in blood,"[1]; 0.5 h postinjection, i.v.",2.22±0.31 % ID/g
same,Uptake in kidneys,"[1]; 0.5 h postinjection, i.v.",8.23±6.39 % ID/g
same,Uptake in skull,"[1]; 0.5 h postinjection, i.v.",10.28±2.58 % ID/g
same,Femur to soft tissue ratio,"[1]; 24 h, soft tissue with highest uptake",> 14
same,Uptake in femur,"[1]; 24 h postinjection, i.v.",15.25±4.89 % ID/g
same,Uptake in kidneys,"[1]; 24 h postinjection, i.v.",1.06±0.10 % ID/g
same,Uptake in skull,"[1]; 24 h postinjection, i.v.",7.13±2.73 % ID/g
same,Bone-seeking properties,[1],potent bone-seekers
same,Discomfort or toxicity after administration of samples,[1],No sign of discomfort or toxicity was observed
"O=P(O)(O)C(NCCc1cccc([131I])c1)P(=O)(O)O [67a, N-(m-[^131I]-iodophenylethyl)aminomethylene-bisphosphonic acid]",Uptake in femur,"[1]; 24 h postinjection, i.v.",1.39±0.43 % ID/g
same,Uptake in liver,"[1]; 24 h postinjection, i.v.",5.57±0.79 % ID/g
same,Uptake in skull,"[1]; 24 h postinjection, i.v.",0.91±0.08 % ID/g
same,Uptake in spleen,"[1]; 24 h postinjection, i.v.",2.49±0.37 % ID/g
same,Bone-seeking properties,[1],lack bone seeking properties
same,Discomfort or toxicity after administration of samples,[1],No sign of discomfort or toxicity was observed
"O=P(O)(O)C(CCc1cccc([131I])c1)P(=O)(O)O [72a, 3-(m-iodo-[^131I and ^125I]-phenyl)propylidene-1,1-bisphosphonic acid]",Uptake in femur,"[1]; 24 h postinjection, i.v.",8.84±0.97 % ID/g
same,Uptake in kidneys,"[1]; 24 h postinjection, i.v.",0.85±0.08 % ID/g
same,Uptake in liver,"[1]; 24 h postinjection, i.v.",0.35±0.06 % ID/g
same,Uptake in skull,"[1]; 24 h postinjection, i.v.",10.36±4.26 % ID/g
same,Bone-seeking properties,[1],potent bone-seekers
same,Discomfort or toxicity after administration of samples,[1],No sign of discomfort or toxicity was observed
[89Sr] [^89Sr],Survival rate / disease-free rats,OHS cells,20%
same,Surviving / disease-free rats of rats treated,OHS cells,2 of 10
N.N.[Cl][Pt][Cl] [cisplatin],Effect on the metastatic growth,MT-1 cells,nor did they have any significant effect on the metastatic growth
same,Survival after repeated treatments,MT-1 cells,have not improved survival
O=P(O)(O)C(O)(c1cccc(I)c1)P(=O)(O)O [compound 2],Ratio between uptake in femur and stomach,[2],"1.7 (femur/stomach, Swiss Webster"
same,Uptake in femur expressed as % gram dose per gram tissue,[2],"299 (Swiss Webster mice, 20-25 g, 47 h) % gram dose per gram tissue"
same,Uptake in stomach,[2],7.65 ± 0.02 % ID/g
same,Uptake in the thyroid,[2],0.414 ± 0.147 % injected dose/organ
O=P(O)(O)C(c1ccc(O)c(I)c1)P(=O)(O)O [compound 3],Ratio between uptake in femur and kidney,[3],"1.5 (femur/kidney, Sprague-Dawley"
same,Uptake in femur expressed as % gram dose per gram tissue,[3],"438 (Sprague-Dawley rats, 220 g, 24 h) % gram dose per gram tissue"
same,Uptake in the thyroid,[3],"3829 (% ID/g,"
O=C(NCCC(O)(P(=O)(O)O)P(=O)(O)O)c1cccc(I)c1 [compound 4],Uptake in femur expressed as % gram dose per gram tissue,[4]; 2 h,"702 (balb/c mice, 19-22 g, 2 h) % gram dose per gram tissue"
same,Ratio between uptake in femur and spleen,[4]; 24 h,"3.2 (femur/spleen, balb/c mice,"
same,Uptake in stomach,[4]; 24 h,0.93 ± 0.95 % ID/g
same,Uptake in the thyroid,[4]; 24 h,0.45 ± 0.36 % injected dose/organ
COc1cccc2c1C(=O)c1c(O)c3c(c(O)c1C2=O)C[C@@](O)(C(=O)CO)C[C@@H]3O[C@H]1C[C@H](N)[C@H](O)[C@H](C)O1 [doxorubicin],Effect on the metastatic growth,MT-1 cells,nor did they have any significant effect on the metastatic growth
same,Survival after repeated treatments,MT-1 cells,have not improved survival
O=P1(NCCCl)OCCCN1CCCl (stereo not drawn) [ifosfamide],Survival rate / disease-free rats,OHS cells,20%
same,Surviving / disease-free rats of rats treated,OHS cells,3 of 15
^153Sm-EDTMP,Survival rate / disease-free rats,OHS cells,62%
same,Surviving / disease-free rats of rats treated,OHS cells,8/13
